Test results: PMC4591828, “Bacterial Rotary Export ATPases Are Allosterically Regulated by the Nucleotide Second Messenger Cyclic-di-GMP” (The Journal of Biological Chemistry, 2015)

Key:
FliIΔ1–18 [1] = system: T1, FliIΔ1–18; assay type: biochemical; conditions: ATP substrate, 2 mM MgCl2, pH 8.0; allosteric
T1 construct: gene fliI; N-terminal truncation lacking first 18 residues, N-terminal His6 tag (pETNdeM-11), expressed in E. coli

HrcNHis = target: T2, HrcNHis (Pseudomonas syringae group genomosp. 3, UniProt Q887B5); test: pyruvate kinase/lactate dehydrogenase-linked ATPase assay; assay type: biochemical
T2 construct: gene sctN; full-length, N-terminal His6 tag (pETNdeM-11), expressed in E. coli
T2 sequence (Q887B5 whole entry): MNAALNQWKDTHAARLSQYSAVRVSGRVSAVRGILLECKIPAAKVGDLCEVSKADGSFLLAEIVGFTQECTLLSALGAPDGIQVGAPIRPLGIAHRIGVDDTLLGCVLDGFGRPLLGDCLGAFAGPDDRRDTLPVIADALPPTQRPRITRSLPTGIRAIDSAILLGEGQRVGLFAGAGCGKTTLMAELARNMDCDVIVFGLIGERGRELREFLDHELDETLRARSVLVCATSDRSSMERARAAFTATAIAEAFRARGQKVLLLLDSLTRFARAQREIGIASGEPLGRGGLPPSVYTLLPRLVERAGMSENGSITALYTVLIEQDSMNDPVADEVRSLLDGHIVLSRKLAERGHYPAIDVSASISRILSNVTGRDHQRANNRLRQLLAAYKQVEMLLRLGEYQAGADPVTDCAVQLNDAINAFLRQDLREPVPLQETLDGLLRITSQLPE

FliIHis [2] = target: T3, FliIHis; test: as above; assay type: biochemical, Pseudomonas fluorescens; conditions: 1 mM ATP, 2 mM MgCl2, pH 8.0; allosteric
T3 construct: gene fliI

FliIHis [3] = system: T3, FliIHis; conditions: no cdG; 2 mM MgCl2, 10 mM KCl, pH 8.0
FliIΔ1–18 [4] = system: T4, FliIΔ1–18; conditions: no cdG; 2 mM MgCl2, 10 mM KCl, pH 8.0
T4 construct: gene fliI

| Compound | IC50 (FliIΔ1–18 [1]) | IC50 (HrcNHis) | IC50 (FliIHis [2]) | Km (FliIHis [3]) | Km (FliIΔ1–18 [4]) |
| --- | --- | --- | --- | --- | --- |
| Nc1nc2c(ncn2[C@@H]2O[C@@H]3COP(=O)(O)O[C@H]4[C@@H](O)[C@H](n5cnc6c(=O)[nH]c(N)nc65)O[C@@H]4COP(=O)(O)O[C@H]3[C@H]2O)c(=O)[nH]1 [cdG] | 48.8 ± 0.159 µM | 25.1 ± 1.14 µM | 36.7 ± 1.13 µM |  |  |
| Nc1ncnc2c1ncn2[C@@H]1O[C@H](COP(=O)(O)OP(=O)(O)OP(=O)(O)O)[C@@H](O)[C@H]1O [ATP] |  |  |  | 0.48 ± 0.03 µM | 0.45 ± 0.04 µM |
